Test system: HepaRG
Experiment: LDH release cytotoxicity, % of total lysis control; higher = more cytotoxic
Settings: 48 h
Method in brief: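 Single-lot HepaRG cells in collagen I-coated 96-well plates were treated for 48 h in serum-free induction medium containing 0.5% DMSO with test chemicals in eight-point half-log series up to 100 µM. For total lysis, wells received 0.1% Triton X. LDH in 50 µL spent medium was assayed by resorufin fluorescence with CytoTox-ONE. Percent cytotoxicity was normalized to the on-plate vehicle and total lysis controls, with duplicates averaged.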

CCC(C)N(C)C(=O)c1cc2ccccc2c(-c2ccccc2Cl)n1 (centres undefined)
Settings | LDH release cytotoxicity [%]
0.02008 µM | -1.37
0.0635 µM | -2.28
0.200805 µM | -3.22
0.635 µM | -3.04
2.00805 µM | -2.99
6.35 µM | -2.9
20.0805 µM | -1.43
63.5 µM | 7.06

CCc1cc(SCc2sc(-c3ccc(C(F)(F)F)cc3)nc2CN2CCN(c3ccc(OC)cc3)CC2)ccc1OCC(=O)O
Settings | LDH release cytotoxicity [%]
0.03162 µM | -1.41
0.1 µM | -1.04
0.3162278 µM | -0.879
1 µM | -1.49
3.16228 µM | -2.29
10 µM | 21
31.6228 µM | 70.2
100 µM | 84

CCc1nn(C2CCCCC2)c2cc(C3(C#N)CCC(C(=O)O)CC3)ccc12 (centres undefined)
Settings | LDH release cytotoxicity [%]
0.03162 µM | -0.818
0.1 µM | -1.01
0.3162278 µM | -0.56
1 µM | -1.9
3.16228 µM | -1.26
10 µM | -1.43
31.6228 µM | 1.5
100 µM | 7.65

CCC1CC(N(Cc2cc(C(F)(F)F)cc(C(F)(F)F)c2)C(C)=O)c2cc(C(F)(F)F)ccc2N1C(=O)OC(C)C (centres undefined)
Settings | LDH release cytotoxicity [%]
0.03162 µM | -0.374
0.1 µM | 0.141
0.3162278 µM | -0.658
1 µM | -0.248
3.16228 µM | -1.3
10 µM | 0.748
31.6228 µM | 3.11
100 µM | 7.54

CCC1CCC(NCc2cc3c(cc2OC)C2CC2C(=O)N3C)C(c2ccccc2)N1 (centres undefined)
Settings | LDH release cytotoxicity [%]
0.03162 µM | -1.16
0.1 µM | -1.78
0.3162278 µM | -0.445
1 µM | -1.5
3.16228 µM | -0.96
10 µM | -0.794
31.6228 µM | 0.439
100 µM | 7.84

CCCCc1nc2cccnc2n1Cc1ccc(-c2ccccc2-c2nnn[nH]2)cc1
Settings | LDH release cytotoxicity [%]
0.03162 µM | -0.82
0.1 µM | -1.42
0.3162278 µM | -0.874
1 µM | -0.211
3.16228 µM | -0.956
10 µM | -0.404
31.6228 µM | -0.609
100 µM | 1.6

CCCCC1CN(CC2CCOCC2)C(=O)OC12CCN(C1(C)CCN(C(=O)c3c(C)ncnc3C)CC1)CC2 (centres undefined)
Settings | LDH release cytotoxicity [%]
0.02846 µM | -1.26
0.09 µM | -1.45
0.284605 µM | -0.87
0.9 µM | -1.55
2.84605 µM | -1.48
9 µM | -1.68
28.4605 µM | -0.822
90 µM | -0.451

CCCN(C1CCN(C(=O)C2CCNCC2)CC1)C1CCc2ccc(OC)cc2C1 (centres undefined)
Settings | LDH release cytotoxicity [%]
0.03162 µM | -0.976
0.1 µM | -1.04
0.3162278 µM | -2.19
1 µM | -1.39
3.16228 µM | -1.79
10 µM | -1.52
31.6228 µM | 0.507
100 µM | 45.7

CCCOc1ccc(S(=O)(=O)N2CCN(CC)CC2)cc1-c1nc2c(CC)n(Cc3ccccn3)nc2c(=O)[nH]1
Settings | LDH release cytotoxicity [%]
0.03162 µM | -0.95
0.1 µM | -1.66
0.3162278 µM | -1.8
1 µM | -1.82
3.16228 µM | -1.41
10 µM | -1.21
31.6228 µM | -0.893
100 µM | 5.44

CCN(C(=O)c1cc(C)cc(OCC(C)Nc2ccncc2)c1)C(C)C (centres undefined)
Settings | LDH release cytotoxicity [%]
0.02135 µM | -1.12
0.0675 µM | -0.177
0.2134537 µM | -0.209
0.675 µM | 0.1
2.13454 µM | -0.21
6.75 µM | -0.0445
21.345374 µM | 0.884
67.5 µM | 19

CCN(Cc1cccnc1)C(=O)c1cccc(Cl)c1C1(C)C(=O)N(Cc2ccc(OC)cc2OC)c2ccc(Cl)cc21 (centres undefined)
Settings | LDH release cytotoxicity [%]
0.02988 µM | -0.884
0.0945 µM | -1.62
0.298835 µM | -1.35
0.945 µM | -1.68
2.98835 µM | -2.31
9.45 µM | 1.33
29.8835 µM | 7.13
94.5 µM | 11.6

CCn1nc(C)c2c1C(=O)NCC(c1ccc(O)cc1)=N2
Settings | LDH release cytotoxicity [%]
0.03162 µM | -0.976
0.1 µM | -1.16
0.3162278 µM | -0.653
1 µM | -0.0547
3.16228 µM | 0.209
10 µM | 0.546
31.6228 µM | 1.6
100 µM | 3.89

CCOC(=O)c1ccc(C2CCC(NCC(O)COc3ccc(O)c(NS(C)(=O)=O)c3)CC2)cc1 (centres undefined)
Settings | LDH release cytotoxicity [%]
0.03162 µM | -1.1
0.1 µM | -1.92
0.3162278 µM | -1.82
1 µM | -2.5
3.16228 µM | -1.76
10 µM | -1.05
31.6228 µM | -1.59
100 µM | -0.279

CCOC(=O)COc1ccc2c(c1)CC(NCC(O)c1cccc(Cl)c1)CC2 (centres undefined)
Settings | LDH release cytotoxicity [%]
0.02893 µM | -1.56
0.0915 µM | 0.00613
0.289348 µM | -0.98
0.915 µM | -1.71
2.89348 µM | -1.72
9.15 µM | -1.13
28.9348 µM | 1.91
91.5 µM | 10.4

CCOc1cccc(-n2cc(C(=O)N3CCN(c4cc(C(=O)O)c5ccccc5c4)CC3)nc2-c2ccc(C)cc2)c1
Settings | LDH release cytotoxicity [%]
0.03162 µM | 1.24
0.1 µM | -0.332
0.3162278 µM | 0.167
1 µM | -0.486
3.16228 µM | -0.46
10 µM | -0.211
31.6228 µM | 9.35
100 µM | 44.3

CCOc1cccc(C2(N3CCN(c4ccccc4)CC3)CCC(C)CC2)c1 (centres undefined)
Settings | LDH release cytotoxicity [%]
0.03162 µM | -1.75
0.1 µM | -2.4
0.3162278 µM | -2.68
1 µM | -2.73
3.16228 µM | -2.22
10 µM | -2.03
31.6228 µM | -1.97
100 µM | -1.12

CCOc1ccc2c(n1)C(=O)C(C(=O)NCc1ccccc1)C=N2 (centres undefined)
Settings | LDH release cytotoxicity [%]
0.03162 µM | -1.14
0.1 µM | -1.5
0.3162278 µM | -0.931
1 µM | -1.34
3.16228 µM | -0.884
10 µM | -0.792
31.6228 µM | -1.83
100 µM | -0.163

CC[C@H](C)[C@@H](C(=O)O)n1sc2ccccc2c1=O
Settings | LDH release cytotoxicity [%]
0.03162 µM | -0.834
0.1 µM | -1.623
0.3162278 µM | -0.553
1 µM | -1.34
3.16228 µM | -1.12
10 µM | -0.759
31.6228 µM | -1.34
100 µM | 0.0312

— the supplement of paper PMC7840683
